Source: patent US8575091B1, “Amylin analogues and pharmaceutical compositions thereof” (Novo Nordisk A/S, priority 2012, dated 2013)
Numbered stars: 1 amine (or outer) side, 2 acyl side, 3 side chain; on linkers, the order of the positions; unused ones are H or OH. Bridge positions count the residues as written; N and C are the ends. Side chains are listed from the residue outwards. Peptide text beside a SMILES is read from it. * marks the point of attachment. C20 diacid = O=C(O)CCCCCCCCCCCCCCCCCCC(=O)*; γGlu = O=C(O)[C@H](CCC(=O)[*:2])N[*:1]

Assays:
[1] = molecular target: T1, human calcitonin receptor (Homo sapiens, UniProt P30988); assay: Assay (VII) binding to the human calcitonin receptor (SPA, 125I-Calcitonin); details: read-out: hCTR bind IC50;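 further: cell membranes coupled to SPA beads, competitive displacement read by scintillation counting, IC50 derived from a one-site competition fit as a measure of receptor affinity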
T1 construct: expressed in transfected cells
T1 sequence (P30988 25-474): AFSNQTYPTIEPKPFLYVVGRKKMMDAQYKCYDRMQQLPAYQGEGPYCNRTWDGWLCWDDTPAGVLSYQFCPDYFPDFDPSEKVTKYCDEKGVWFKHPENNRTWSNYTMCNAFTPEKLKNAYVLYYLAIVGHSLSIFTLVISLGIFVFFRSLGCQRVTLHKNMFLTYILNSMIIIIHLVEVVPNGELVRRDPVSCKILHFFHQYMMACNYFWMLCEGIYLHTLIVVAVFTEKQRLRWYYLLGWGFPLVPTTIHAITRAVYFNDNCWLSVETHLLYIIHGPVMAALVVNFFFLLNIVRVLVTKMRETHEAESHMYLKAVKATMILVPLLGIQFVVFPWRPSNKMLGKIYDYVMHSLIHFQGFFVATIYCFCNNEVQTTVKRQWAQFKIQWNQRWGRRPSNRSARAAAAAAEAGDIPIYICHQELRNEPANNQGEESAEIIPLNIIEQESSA
Description: Membranes were prepared in the following way; the cells were rinsed with PBS and incubated with Versene for approximately 5 min before harvesting. The cells were flushed with PBS and the cell-suspension was centrifuged for 5 min at 1000 rpm. […] The resulting pellet was resuspended in buffer 2 and protein concentration was measured (BCA protein Assay, Pierce). The homogenate was kept cold during the whole procedure. The membranes were kept at −80° C. until use. Assay was performed in a 384 well Optiplate (PerkinElmer) in a total volume of 40 ul. Membranes were mixed with SPA beads. Final concentration of membranes 35 ng/μL final and Final concentration of SPA beads was 0.05 mg/well. Test-compounds were dissolved in DMSO and further diluted in assay buffer (50 mM Hepes, pH 7.4, 1 mM CaCl2, 5 mM MgCl2, 0.1% OA and 0.02% Tween20). […] Samples were analyzed on TopCounter™ (Packard). The IC50 was calculated using (one site binding competition analysis) GraphPad Prism5 as a measure of receptor affinity.

Sprague-Dawley rats = assay: Assay (XI) single subcutaneous administration, food intake monitored for 48 hours in rats; format: in vivo, rat; details: single subcutaneous 30 nmol/kg
Description: Assay (XI)—Effect from Single Subcutaneous Administration of Analogue on […] in Rats
Male Sprague-Dawley rats (Taconic Europe, ˜250 g at test date) were acclimatized to reversed day light cycle (lights on from 10 PM to 10 AM) and single housing in online food intake monitoring system (Ellegaard MBRose, Denmark) prior to study start. Rats were divided in groups of five and subcutaneously dosed with test compound (30 nmol/kg) and food intake was monitored for 48 hours hereafter. Data are illustrated in graphs as mean±SEM.

[2] = molecular target: T2, human amylin receptor (amylin 3(a) receptor: human calcitonin receptor + RAMP-3) (Homo sapiens, UniProt O60896+P30988); assay: Assay (II)a functional assay, human amylin receptor (CRE luciferase, BHK cells); format: cell-based; details: for EC50: functional assay, human amylin receptor, read-out: hAmylin-R funct. EC50
T2 construct: expressed in transfected cells
T2 sequence (P30988 25-474): T1 sequence (P30988 25-474)
T2 sequence (O60896 24-148 partner): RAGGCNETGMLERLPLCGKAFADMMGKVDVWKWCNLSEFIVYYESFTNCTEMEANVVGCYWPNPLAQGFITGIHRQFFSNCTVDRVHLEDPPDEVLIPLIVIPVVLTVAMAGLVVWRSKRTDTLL
Description: Assay (II)—Functional Assays
Consequently, transcription is activated by promoters containing multiple copies of the cAMP response element (CRE).
The cell line was further transfected with RAMP-3, using standard methods.
After incubation overnight at 37° C. and 5% CO2, the growth medium was replaced by 50 μl/well assay medium (DMEM (without phenol red), Glutamax™, 10% FBS, and 10 mM Hepes, pH 7.4). Further, 50 μl/well of standard or sample in assay buffer were added. After 3 hours incubation at 37° C. and 5% CO2, the assay medium with standard or sample were removed and replaced by 100 μl/well PBS. Further, 100 μl/well LucLite™ was added. The plates were sealed and incubated at room temperature for 30 minutes. Finally, luminescence was measured on a TopCounter (Packard) in SPC (single photon counting) mode.

Wistar rats = assay: Assay (XII) single subcutaneous administration, plasma calcium in rats; format: in vivo, rat; details: for Plasma calcium red (%) 0-12 h: single s.c., maximal reduction 0-12 h, compared to vehicle; for suppression of plasma calcium level relative to vehicle: single subcutaneous, over 24 hours
Method in brief: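 Male Wistar rats (~250 g), groups of five, received a single subcutaneous dose at time 0. Blood drawn at −15 min, 1, 2, 4, 7, 12 and 24 h; total calcium measured in heparin plasma, reported as mean±SEM.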

[3] = molecular target: T1, human calcitonin receptor; assay: Assay (II)a functional assay, human calcitonin receptor (CRE luciferase, BHK cells);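 further: luminescence from a CRE-driven luciferase reporter, read by single photon counting after cells were exposed to test samples for 3 h at 37 °C under 5% CO2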; format: cell-based; details: read-out: hCTR funct. EC50
human amylin receptor = molecular target: T3, human amylin receptor (Homo sapiens, UniProt O60896+P30988); assay: Assay (V) binding to the human amylin receptor (SPA, 125I-rat amylin); details: human amylin receptor membranes, SPA; read-out: hAmylin-R bind IC50
T3 construct: expressed in transfected cells
T3 sequence (P30988 25-474): T1 sequence (P30988 25-474)
T3 sequence (O60896 24-148 partner): T2 sequence (O60896 24-148 partner)
Method in brief: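 SPA competition binding on membranes from Amylin 3(a)/CRE-luc cells, 35 ng/μL membranes with 0.05 mg/well beads. Buffer 50 mM Hepes pH 7.4, 1 mM CaCl2, 5 mM MgCl2, 0.1% OA, 0.02% Tween20. IC50 from one-site competition fit as affinity measure.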

SMILES | IC50 [1] [nM] | food intake monitored over 48 hours versus vehicle (Sprague-Dawley rats) | EC50 [2] [nM] | Plasma calcium red (%) 0-12 h (Wistar rats; 30 nmol/kg) [%] | suppression of plasma calcium level relative to vehicle (Wistar rats; increasing doses (all doses tested)) | EC50 [3] [nM] | IC50 (human amylin receptor) [nM] | Ratio hCT/hAmylin funct. ([2]; Table 6, human functional selectivity (hCTR EC50 / hAmylin-R EC50)) | Ratio hCT/hAmylin funct. ([2]; Table 6a, human functional selectivity (hCTR EC50 / hAmylin-R EC50), at least 5) | Ratio hCT/hAmylin funct. ([2]; Table 6i, hCTR funct. EC50 / hAmylin-R funct. EC50) | Ratio hCT/hAmylin funct. ([2]; Table 6j, hCTR funct. EC50 / hAmylin-R funct. EC50) | Ratio hCT/hAmylin funct. ([2]; Table 6k, hCTR funct. EC50 / hAmylin-R funct. EC50) | Plasma calcium red (%) 0-12 h (Wistar rats; 3 nmol/kg) [%] | suppression of plasma calcium level relative to vehicle (Wistar rats; 3 nmol/kg) | suppression of plasma calcium level relative to vehicle (Wistar rats; 30 nmol/kg) | suppression of plasma calcium level relative to vehicle (Wistar rats; 100 and 300 nmol/kg)
CC[C@H](C)[C@H](NC(=O)[C@H](C)NC(=O)CNC(=O)[C@H](Cc1ccccc1)NC(=O)[C@H](CC(N)=O)NC(=O)[C@@H]1CCCN1C(=O)[C@H](CO)NC(=O)[C@H](CO)NC(=O)[C@H](Cc1c[nH]cn1)NC(=O)[C@H](CCCNC(=N)N)NC(=O)[C@H](CC(C)C)NC(=O)[C@H](Cc1ccccc1)NC(=O)[C@H](CC(=O)O)NC(=O)[C@H](C)NC(=O)[C@H](CC(C)C)NC(=O)[C@H](CCCNC(=N)N)NC(=O)[C@H](CCC(N)=O)NC(=O)[C@@H](NC(=O)[C@H](C)NC(=O)[C@@H]1CSSC[C@H](NC(=O)[C@@H](N)CCCCNC(=O)CC[C@H](NC(=O)CC[C@H](NC(=O)CCCCCCCCCCCCCCCCCCC(=O)O)C(=O)O)C(=O)O)C(=O)N[C@@H](CC(N)=O)C(=O)N[C@@H]([C@@H](C)O)C(=O)N[C@@H](C)C(=O)N[C@@H]([C@@H](C)O)C(=O)N1)[C@@H](C)O)C(=O)N1CCC[C@H]1C(=O)N[C@@H](CO)C(=O)N[C@@H](CO)C(=O)N[C@H](C(=O)N[C@@H](CC(N)=O)C(=O)N[C@H](C(=O)NCC(=O)N[C@@H](CO)C(=O)N[C@@H](CCCNC(=N)N)C(=O)N[C@H](C(=O)N[C@@H](Cc1ccc(O)cc1)C(N)=O)[C@@H](C)O)C(C)C)[C@@H](C)O [Example 52, N-ε-1-{(S)-4-carboxy-4-[(S)-4-carboxy-4-(19-carboxynonadecanoylamino)butyrylamino]butyryl}-[Asp14,Arg17,Pro21,Pro27,Arg35]-human amylin] | 56.9 | reduces food intake in rats | 0.34 | 12 | None of the doses trigger a notable suppression of the calcium level | 14.1 | 0.697 |  |  |  |  |  |  |  |  | 
CC[C@H](C)[C@H](NC(=O)[C@H](C)NC(=O)CNC(=O)[C@H](Cc1ccccc1)NC(=O)[C@H](CC(N)=O)NC(=O)[C@@H]1CCCN1C(=O)[C@H](CO)NC(=O)[C@H](CO)NC(=O)[C@H](Cc1c[nH]cn1)NC(=O)[C@H](CCCNC(=N)N)NC(=O)[C@H](CC(C)C)NC(=O)[C@H](Cc1ccccc1)NC(=O)[C@H](CCC(=O)O)NC(=O)[C@H](C)NC(=O)[C@H](CC(C)C)NC(=O)[C@H](CCCNC(=N)N)NC(=O)[C@H](CCC(N)=O)NC(=O)[C@@H](NC(=O)[C@H](C)NC(=O)[C@@H]1CSSC[C@H](NC(=O)[C@@H](N)CCCCNC(=O)CC[C@H](NC(=O)CCCCCCCCCCCCCCCCCCC(=O)O)C(=O)O)C(=O)N[C@@H](CC(N)=O)C(=O)N[C@@H]([C@@H](C)O)C(=O)N[C@@H](C)C(=O)N[C@@H]([C@@H](C)O)C(=O)N1)[C@@H](C)O)C(=O)N1CCC[C@H]1C(=O)N[C@@H](CO)C(=O)N[C@@H](CO)C(=O)N[C@H](C(=O)N[C@@H](CC(N)=O)C(=O)N[C@H](C(=O)NCC(=O)N1CCC[C@H]1C(=O)N[C@@H](CCC(=O)O)C(=O)N[C@H](C(=O)N[C@@H](Cc1ccc(O)cc1)C(N)=O)[C@@H](C)O)C(C)C)[C@@H](C)O [Example 109] (H-K([γGlu-C20 diacid])CNTATCATQRLAEFLRHSSPNFGAIPSSTNVGPETY-NH2; disulfide 2-7) | 1.86 | reduces food intake in rats | 0.161 | 27 |  | 0.841 | 0.14 | 5.2 | 5.2 | 5.2 | 5.2 | 5.2 | 7 | does not trigger a notable suppression of the calcium level | minor suppression of the calcium level | more pronounced suppression of the calcium level
